The values below come from patent US12522596B2, “Compounds as GLP-1R agonists” (Terns Pharmaceuticals, Inc., priority 2021, dated 2026).

The Cmax is the highest concentration seen after dosing. What is called AUC(0-t) is the area under the concentration-time curve up to a stated or last time point. The half-life is how long it takes for the measured level to halve. Higher therefore signals slow loss. What is called CLint scaled is a measure of how fast metabolising enzymes remove a compound, apart from limits set by blood flow. By EC50 is commonly meant the concentration that produces a half-maximal response. Read a low EC50 as an effect from little substance.

Data set [1] is described as follows: Rat pharmacokinetics, oral dosing. The format is in vivo, Sprague-Dawley rats. Particulars: for Cmax / AUC(0-t) / half-life: male, Sprague-Dawley, rat plasma, 3 mg/kg PO (0.6 mg/mL); for PK properties relative to Reference Compound A: dosed orally. On the procedure: Oral dosing: Compounds were formulated at 0.3 mg/mL or 0.6 mg/mL in a solution comprising 5% polyethylene glycol 400 and 95% (12% (w/v) sulfobutyl-β-cyclodextrin in water) (v/v). Formulated compounds were administered to male, 7-11 week old Sprague-Dawley rats by oral gavage at a dose of 3 mg/kg.
Sample collection: Blood collections of about 0.2 mL per time point were performed from jugular vein or other suitable site of each animal, into pre-chilled commercial EDTA-K2 tubes and placed on wet ice until centrifugation. Blood samples were processed for plasma by centrifugation at approximately 4° C., 3,200 g for 10 min. Plasma was collected and transferred into pre-labeled 96 well plate or polypropylene tubes, quick frozen over dry ice and kept at −60° C. or lower until LC-MS/MS analysis.
Data analysis: Plasma concentration versus time data was plotted in graph and analyzed by non-compartmental approaches using the Phoenix WinNonlin 6.3 software program. Related PK parameters were calculated according to dosing route, e.g., CL, Vdss and C0 for intravenous administration, Cmax, Tmax or % F for extravascular administration, and T1/2, AUC(0-t), AUC(0-inf), MRT(0-t), MRT(0-inf) for all routes.

A further data set has as its system rat hepatocytes. The data set can be described thus: Metabolic stability in rat hepatocytes. The format is in vitro ADME. Here is the method:
(§1) Test compounds were incubated in rat and human hepatocytes and stability was assessed from the substrate […] approach. Test compounds were dissolved in dimethyl sulfoxide (DMSO) to create a 10 mM Stock, and then further diluted to create a 1000× Working Stock of 1 mM with DMSO in 96-well plates for test compounds and the positive control (midazolam). Vials containing cryopreserved hepatocytes were removed from the liquid nitrogen tank and immediately immersed in a 37° C. water bath. The vials were shaken gently until the contents had thawed and were then immediately emptied into 48 mL of pre-warmed HT Medium in a 50 mL conical tube. Cells remaining in the vial were resuspended with 1.0 mL of pre-warmed HT Medium and added to the conical tube. The tube was capped and then gently inverted several times to resuspend the hepatocytes. The cell suspension was centrifuged at 50×g at room temperature for 5 minutes and the supernatant discarded. The cell pellet was loosened by gently swirling the centrifuge tube and was re-suspended in 4 mL of warm Dulbecco's Modified Eagle medium (DMEM). Cell density was determined by a cell counter by Nexcelom, and DMEM medium was added to obtain a target density of 1×10^6 cells/mL. The assay was carried out in 96-well microtiter plates. Test Compounds were incubated at 1 μM with 1×10^6 cells/mL hepatocytes in DMEM for 0, 30, 60, 120 and 240 minutes. The incubation was carried out with gentle shaking at 37° C. under a humid atmosphere of 95% air/5% CO2. The volume of the incubation mixture was 37 μL with a final 0.1% DMSO. At each of the time points, the incubation was stopped by adding 150 μL quenching solution (100% acetonitrile, 0.1% formic acid containing bucetin as an internal standard for positive ESI mode). Subsequently, the mixtures were vortexed for 20 min and centrifuged at 4,000 RPM at 10° C. The supernatant (80 μL) was transferred to a clean 96-well plate and analyzed by LC-MS/MS. Midazolam at 1 μM with a final 0.1% DMSO was included as a positive control to verify assay performance. The percent parent remaining, intrinsic and predicted hepatic clearance and t1/2 were calculated. All samples were analyzed by LC-MS/MS using an AB Sciex API 4000 instrument, coupled to a Shimadzu LC-20AD LC Pump system. Separation was achieved using a Waters Atlantis T3 dC18 reverse phase HPLC column (20 mm×2.1 mm) at a flow rate of 0.5 mL/min. The mobile phase consisted of 0.1% formic acid in water (solvent A) and 0.1% formic acid in 100% acetonitrile (solvent B). Elution conditions are detailed below.
(§2) The ion optics of each test compound were optimized for their declustering potential (DP), […] (CE), collision-cell exit potential (CXP) and used in a selected ion monitoring experiment in the positive ion mode. The peak area ratio of each test compound to internal standard was then evaluated for stability. The extent of metabolism was calculated based on the disappearance of the test compound, compared to its initial concentration. The initial rates of clearance of the test compound were calculated using the linear regression plot of semi-log % remaining of the compound versus time. The elimination rate constant (k) of the linear regression plot was then used to determine t1/2 and the intrinsic clearance (CLint) using the following formula, where Chepatocyte (million cells/mL) is the cell density of the incubation:
(§3) The predicted hepatic clearance (CLhep) was calculated using the well stirred method with the following formula with CLint(in vivo) normalized based on liver weight: […]
(§4) The relevant physiological parameters of liver weight, blood flow, and hepatocellularity for various species are listed below: […]

A short description of data set [2]: Metabolic stability in rat hepatocytes. The format is in vitro ADME. The note with it: cryopreserved hepatocytes, 1 μM. On the procedure: as §1, §2, §3, §4
The target of another data set is T1, human GLP-1R receptor (Homo sapiens, UniProt P43220).
T1 construct: expressed in transfected cells
T1 sequence (P43220 24-463): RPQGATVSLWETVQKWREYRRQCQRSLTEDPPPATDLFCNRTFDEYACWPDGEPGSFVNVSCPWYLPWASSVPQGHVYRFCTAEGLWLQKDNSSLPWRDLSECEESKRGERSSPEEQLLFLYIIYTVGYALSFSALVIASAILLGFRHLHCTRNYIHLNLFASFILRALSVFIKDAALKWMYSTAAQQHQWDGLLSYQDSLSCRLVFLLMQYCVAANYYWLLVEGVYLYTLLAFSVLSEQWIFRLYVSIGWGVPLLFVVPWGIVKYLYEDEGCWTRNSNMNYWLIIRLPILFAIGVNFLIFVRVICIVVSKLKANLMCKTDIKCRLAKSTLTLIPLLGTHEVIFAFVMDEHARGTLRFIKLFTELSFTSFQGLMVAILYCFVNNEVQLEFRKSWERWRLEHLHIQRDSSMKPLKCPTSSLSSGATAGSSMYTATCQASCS
The data set can be described thus: GLP-1R low expression cell assay (cAMP TR-FRET, CHO-K1_hGLP-1Rlow_clone10). It counts as cell-based. Particulars: CHO-K1_hGLP-1Rlow_clone10 cells. On the procedure:
Stable cell lines expressing high and low GLP-1R surface expression were generated in CHO-K1 cells transfected (Fugene 6) with a puromycin selectable DNA plasmid encoding human GLP-1R receptor (accession number: NM_002062.5) under control of an EF1A promoter. Transfected cells were seeded into 24-well plates (9,000 cells/well) containing complete medium and incubated in a humidified incubator at 37° C. with 5% carbon dioxide. After overnight incubation, medium was replaced with complete medium supplemented with puromycin (6 μg/mL) and refreshed every 2-3 days to select for stably transfected cells. Individual pools of selected cells were expanded prior to analysis for responsiveness to GLP-1 control peptide using a TR-FRET assay to detect cAMP (LANCE Ultra CAMP Assay, Perkin Elmer). Briefly, cells were collected in Versene solution, plated in 384-well plates (1,000 cells/well) and combined with serially diluted GLP-1R control peptide (10 nL) using an acoustic dispenser (ECHO). Plates were incubated for 30 minutes at 25° C. prior to the addition of EU-CAMP tracer (5 μL) and Ulight-anti-cAMP (5 μL) reagents to each well, followed by 15 minutes incubation at 25° C. TR-FRET signal was detected using an En Vision Multimode Plate Reader (excitation=320 nm; emission=615 and 655 nm). Dose-response curves were used to generate EC50 values as a measure of responsiveness to the GLP-1R control peptide. Selected cell lines were monitored for responsiveness over multiple passages to ensure stability. […] Briefly, GLP-1R expression was analyzed by flow cytometry using a fluorescein-labeled Exendin-4 peptide fluorescent probe (FLEX). Cells were harvested in Versene solution and washed 3-times with PBS+0.5% BSA before incubation with FLEX reagent (10 μM) for 2 hours at room temperature. After incubation, cells were washed 3-times in PBS+0.5% BSA before final resuspension in PBS prior to analysis by flow cytometry to measure FLEX mean fluorescence intensity (MFI) as a measure of GLP-1R expression on the cell surface.
For compound testing in the CHO-K1_hGLP-1Rlow_clone10 cell line, cells were seeded in 384-well plates (1,000 cells/well). Test compounds were serially diluted in DMSO (10-point, 3-fold dilution), added to wells using an ECHO dispenser (10 nL/well) and plates were centrifuged for 1 min and agitated for 2 min at room temperature prior to 30-minute incubation at 25° C. After incubation, Eu-CAMP (5 μL) and Ulight-anti-cAMP (5 μL) reagents were added to each well, followed by centrifugation for 1 minute, agitation for 2 minutes at room temperature, and final incubation of the plates at 25° C. for 15 minutes. Plates were read using an EnVision microplate reader (excitation=320 nm; emission=615 and 655 nm). Dose-response curves were generated from duplicate wells based on percent activation calculated relative to a control GLP-1 peptide agonist that was run in parallel. EC50 values were determined by fitting percent activation as a function of compound concentration using the Hill equation (XLfit).
Stable cell lines expressing high and low GLP-1R surface expression were generated in CHO-K1 cells transfected (Fugene 6) with a puromycin selectable DNA plasmid encoding human GLP-1R receptor (accession number: NM_002062.5) under control of an EF1A promoter. Transfected cells were seeded into 24-well plates (9,000 cells/well) containing complete medium and incubated in a humidified incubator at 37° C. with 5% carbon dioxide. After overnight incubation, medium was replaced with complete medium supplemented with puromycin (6 μg/mL) and refreshed every 2-3 days to select for stably transfected cells. Individual pools of selected cells were expanded prior to analysis for responsiveness to GLP-1 control peptide using a TR-FRET assay to detect cAMP (LANCE Ultra CAMP Assay, Perkin Elmer).
For orientation: Time-resolved FRET reads energy transfer from a long-lived donor to a nearby acceptor.

Data set [3] is described as follows: Metabolic stability in human hepatocytes. The format is in vitro ADME. Particulars: cryopreserved hepatocytes; human hepatocytes, 1 μM. Here is the method: as §1, §2, §3, §4

In data set [1] (rat, plasma, po, 3 mg/kg), `N#Cc1ccc(COc2cccc(C34CCN(Cc5nc6ccc(C(=O)O)cc6n5Cc5cncs5)CC3C4)n2)c(F)c1` (stereo not shown) [Compound 14] had a Cmax of 581 ± 100 ng/mL. In data set [1], this compound showed an AUC(0-t) of 582 ± 45 ng·h/mL and a half-life of 3.14 ± 1.88 h. Also, the “PK properties relative to Reference Compound A” value in data set [1] (rat) is listed as “similarly improved PK properties”. In addition, the “CLint relative to reference standard” value with rat hepatocytes was “significantly increased”. In data set [2], the CLint scaled at 1 μM was 92.8 ± 3.3 mL/min/kg and the half-life at 1 μM is 0.597 ± 0.0212 h. In addition, on human GLP-1R receptor, a half-maximal response (EC50) required 30.1 nM. In addition, in data set [3], the CLint scaled at 1 μM is 20.1 ± 0.59 mL/min/kg and the half-life at 1 μM amounted to 1.99 ± 0.0583 h.

As for `O=C(O)c1ccc2nc(CN3CCC(c4nccc(OCc5ccc(Cl)cc5F)n4)CC3)n(Cc3cncs3)c2c1` [Compound 23], in the data set on rat hepatocytes, the “CLint relative to reference standard” value is reported as “significantly increased” and the “Half-life relative to reference” value was “significantly lower”. Moreover, in data set [2], the CLint scaled at 1 μM worked out at 57.9 ± 1.25 mL/min/kg and the half-life at 1 μM stood at 0.957 ± 0.0205 h. The same compound showed an EC50 on human GLP-1R receptor of 3.3 nM. In data set [3], this compound had a CLint scaled at 1 μM of 42.3 ± 1.59 mL/min/kg and a half-life at 1 μM of 1.11 ± 0.0523 h.

Turning to `[2H]C([2H])(Oc1cccc(C2CCN(Cc3nc4ccc(C(=O)O)cc4n3Cc3cncs3)CC2)n1)c1ccc(Cl)cc1F` [Compound 26], in the data set with rat hepatocytes, the “CLint relative to reference standard” value was “significantly lower” and the “Half-life relative to reference” value was “significantly higher”. Moreover, in data set [2], the CLint scaled at 1 μM was 24.1 ± 0.83 mL/min/kg and the half-life at 1 μM was 2.3 ± 0.0792 h. It took 4 nM to reach a half-maximal effect on human GLP-1R receptor (EC50). For the same compound, in data set [3], the CLint scaled at 1 μM amounted to 20.9 ± 0.98 mL/min/kg and the half-life at 1 μM amounted to 1.92 ± 0.0905 h.

In data set [1] (rat, plasma, po, 3 mg/kg), `[2H]C([2H])(Oc1cccc(C2CCN(Cc3nc4ccc(C(=O)O)cc4n3Cc3cncs3)CC2)n1)c1ccc(C#N)cc1F` [Compound 27] showed an AUC(0-t) of 617 ± 248 ng·h/mL, a Cmax of 478 ± 186 ng/mL and a half-life of 1.37 ± 0.18 h. Besides, the “PK properties relative to Reference Compound A” value in data set [1] (rat) is recorded as “similarly improved PK properties”. In the data set on rat hepatocytes, the “CLint relative to reference standard” value is reported as “significantly lower” and the “Half-life relative to reference” value was “significantly higher”. Also, in data set [2], the CLint scaled at 1 μM is 29 ± 0.58 mL/min/kg and the half-life at 1 μM is 1.91 ± 0.0383 h. This compound also came in with an EC50 at human GLP-1R receptor of 8.6 nM. In data set [3], this compound had a CLint scaled at 1 μM of 15.6 ± 0.7 mL/min/kg and a half-life at 1 μM of 2.57 ± 0.117 h.

In data set [1] (rat, plasma, po, 3 mg/kg), `N#Cc1cnc(COc2cccc(C3CCN(Cc4nc5ccc(C(=O)O)cc5n4Cc4cncs4)CC3)n2)c(F)c1` [Compound 29] had an AUC(0-t) of 411 ± 32 ng·h/mL, a Cmax of 299 ± 62.9 ng/mL and a half-life of 1.54 ± 0.46 h. Also, in data set [1] (rat), the “PK properties relative to Reference Compound A” value is given as “similarly improved PK properties”. Further, in the data set on rat hepatocytes, the “CLint relative to reference standard” value was “significantly lower” and the “Half-life relative to reference” value is on record as “significantly higher”. In data set [2], this compound showed a CLint scaled at 1 μM of 35.8 ± 1.42 mL/min/kg and a half-life at 1 μM of 1.55 ± 0.0615 h. The compound further displayed an EC50 at human GLP-1R receptor of 27.8 nM. For the same compound, in data set [3], the CLint scaled at 1 μM is 15.3 ± 0.76 mL/min/kg and the half-life at 1 μM worked out at 2.61 ± 0.13 h.
